{
  "source": "patent US10463709B2",
  "about": "“Short synthetic peptide for treating diseases and/or conditions related to angiogenesis” (MacKay Memorial Hospital, priority 2015, dated 2019)",
  "key": {"[1]": {"test_system": "rat model of laser-induced wet AMD", "test": "Laser-induced wet AMD, rat model", "assay_type": "in vivo", "details": "fluorescein angiography day 14; vs PBS vehicle", "from_the_text": "Further, the effect of 7-mer or 7-mer DD on rat model of laser-induced wet AMD was also investigated. Fluorescein angiography images were obtained on day 14 after laser burn, and the images were subsequently scored. Results are depicted in FIG. 14."}, "HUVECs": {"test_system": "HUVECs", "test": "VEGF-induced HUVEC proliferation assay", "assay_type": "cell-based", "details": "VEGF (10 ng/mL) + 25 μM peptide; vs untreated HUVECs"}, "diabetic rats": {"test_system": "diabetic rats", "test": "Vascular abnormalities in the retina of diabetic rats", "assay_type": "in vivo, Sprague-Dawley rats", "details": "intravitreal injection", "procedure": "Diabetes was induced in male Sprague-Dawley rats after fasting overnight by a single intraperitoneal injection of STZ (65 mg/kg body weight). STZ was freshly prepared in 0.1 M citrate buffer (pH 4.5). Rats with blood glucose levels >350 mg/dl for 5 days after receiving STZ were considered to be in diabetic status and were termed diabetic rats hereinafter. Blood glucose levels were checked every 2 days a blood glucose monitor. Animals that served as non-diabetic controls received an equivalent amount of citrate buffer alone. For peptide treatment, diabetic rats were anesthetized by an intraperitoneal injection of a Xylazine (10 mg/kg), and then intravitreally injected with 3 μl of the present synthetic peptide (10 mM) into one eye and an equal volume of PBS was injected into the contralateral eye (n=3-6 per group). After peptide treatment for 24 h, measurement of retinal vascular leakage by BSA-FITC (100 mg/kg body weight) was conducted in according to procedures described above."}, "[2]": {"test_system": "human uterine sarcoma cells (MES-SA/Dx5)", "test": "Tumorigenicity assay, xenografted human uterine sarcoma", "assay_type": "in vivo, nude mice", "details": "10 mg/kg intraperitoneal every 2 days for 10 days", "procedure": "MES-SA/Dx5 cells (5×10^6 cells in 0.1 ml) were implanted by subcutaneous injections in the right flank region of female nude mice (n=24, each animal weighted about 20 g before the assay began). The experiments were approved by the Mackay Memorial Hospital Review Board for animal investigation. Treatment was initiated in animals when the tumor volume was above 80 mm^3. Vehicle DMSO, the present synthetic peptide or the control peptide (10 mg/kg) was administered by intraperitoneal injections every 2 days. Tumor progression was monitored for 10 days; size of the tumor was measured every 3 to 5 days with a caliper and the volume was calculated using the following formula: ½×length×width^2.\nTo this purpose, human uterine sarcoma cells (MES-SA/Dx5) were implanted in nude mice to induce tumor formation, and when the volume of each tumor reached 80 mm^3, animals were then treated with vehicle alone, or the 7-mer peptide at the dose of 10 mg/kg, every 2 days for 10 days. Results are depicted in FIG. 9."}, "RPMI8226 cells": {"test_system": "RPMI8226 cells", "test": "MTT assay, VEGF-induced proliferation of RPMI8226 cells", "assay_type": "cell-based", "summary_of_the_method": "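After 24 h serum starvation, cells seeded at 3×10^5/well and cultured 24 h in serum-free RPMI1640 with 25 μM peptide, VEGF serving as proliferation stimulus. Viability by MTT (4 h, 37° C), DMSO solubilisation 20 min, absorbance at 570 nm.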"}},
  "note": "Ends that are not written are not given here.",
  "data": [
    {"substance": "NH2-Asp-Leu-Tyr-Arg-Val-Arg-Ser-COOH (DLYRVRS; not fully specified (N-terminus, C-terminus); printed as NH2-Asp-Leu-Tyr-Arg-Val-Arg-Ser-COOH) [7-mer]", "values": [
      {"measurement": "lesions caused by the laser burn", "setting": "[1]", "result": "significantly ameliorated"},
      {"measurement": "Cell number (Fold)", "setting": "HUVECs", "result": "0.95 ± 0.050", "unit": "Fold"},
      {"measurement": "levels of leaked FITC-BSA in entire retina vs vehicle", "setting": "diabetic rats", "result": "0.43±0.07", "unit": "fold"},
      {"measurement": "number of vascular lesion in retina", "setting": "diabetic rats; 24 h", "result": "9.2±2.15"},
      {"measurement": "tumor volume", "setting": "[2]", "result": "125±15.4", "unit": "mm^3"},
      {"measurement": "dose dependence of inhibitory action on VEGF-induced cell proliferation", "setting": "RPMI8226 cells; 1 to 25 μM, RPMI8226 cells", "result": "dose dependent manner"},
      {"measurement": "effect on VEGF-induced proliferation of RPMI8226 cells", "setting": "RPMI8226 cells; VEGF 50 ng/ml, 25 μM peptide, 24 hrs, MTT", "result": "suppressed"}
    ]}
  ]
}
